In article PMC7892475, “C-Terminal Amination of a Cationic Anti-Inflammatory Peptide Improves Bioavailability and Inhibitory Activity Against LPS-Induced Inflammation” (Frontiers in Immunology, 2021):

Legend:
[1] = system: RAW264.7 cells; experiment: CCK-8 cell viability assay; type: cell-based, mouse; conditions: RAW264.7 macrophages, CCK-8, 0 to 80 μg/ml, 24 h or 72 h, 37°C
Description: The viability of peptide-treated RAW264.7 cells was determined using a Cell Counting Kit-8 (CCK-8) Assay Kit (Dojindo) ([35]). RAW264.7 cells were plated in 96-well plates at a density of 3×10^4 cells/ml in 100 μl DMEM overnight. The cell culture medium was then supplemented with fresh medium containing candidate peptides in a series of concentrations, and the plates were incubated for another 24 h or 72 h. Each well was incubated with 10 μl CCK-8 solution for 4 h in the dark. Afterwards, the absorbance at 450 nm was measured using a microplate reader. Cell viability was determined by:
Cell viability (%)=(OD450sample/OD450(control))×100%

[2] = system: NF-κB signaling pathway in LPS-treated RAW264.7 cells; experiment: Western blotting of the NF-κB signaling pathway; type: cell-based, mouse; conditions: 100 ng/ml LPS 1 h, wash, CTP-NH2 3 h, western blot
Description: RAW264.7 cells plated at a density 1.8 × 10^6 cells/ml were incubated with LPS (100 ng/ml) at 37°C for 1 h. After that, the cells were washed extensively with PBS before being treated with CTP-NH2 for 3 h at 37°C, followed by lysis of the cells. Cytoplasmic and nuclear protein fractions were obtained using NR-PER Nuclear and Cytoplasmic Extraction Reagents (Thermo Fisher Scientific Inc., New Zwaland). The protein concentrations were assessed with a […] (KeyGEN Biotech. Nanjing, China) according to the manufacturer’s instructions. Afterwards, total protein (40 μg protein/lane) was separated on 10% SDS-PAGE gels and then transferred to PVDF membranes (Bio-Rad). Next, the membranes were blocked with 5% non-fat dried-milk containing 0.05% TBST and then immunoblotted with specific primary antibodies against IKK-β, p-IKK-β, IкB-α, p-IкB-α, NF-кB (p65), p-NF-кB (p-p65), and β-actin (Santa Cruz, CA, USA). After being washed with TBST, the membranes were incubated with HRP-conjugated secondary antibodies (HuaAn, Hangzhou, China). A ChemiDoc MP Imaging System (Bio-Rad, Hercules, CA, USA) was used to quantify the density of the specific proteins.

[3] = system: LPS-induced sepsis in C57/BL6 mice; experiment: LPS-induced murine model of sepsis; type: in vivo, mouse
Description: Male C57/BL6 mice (6–8 weeks of age) were purchased from Charles River (Beijing, China). The mice were maintained in a specific-pathogen-free (SPF) environment at 22 ± 1°C with relative 55 ± 10% humidity during the experiments. The assays were performed in conformity with the laws and regulations for live animal treatments at China Agricultural University.
The mice were randomly distributed into three groups (n = 12 each): control, LPS (E. coli, O111:B4, Sigma-Aldrich, USA) treatment, and CTP-NH2 pretreatment followed by LPS treatment (CTP-NH2 + LPS). For the first 7 days, CTP-NH2 (10 mg/kg mouse weight) was injected intraperitoneally once daily. Meanwhile, an equal volume of sterile saline was injected into mice in the control and LPS-treated groups. On day 7, LPS (10 mg/kg mouse weight) was injected intraperitoneally into mice in the LPS and CTP-NH2 + LPS groups to establish the sepsis animal model. The control group was intraperitoneally injected with an equal volume of saline. Sixteen hours after the LPS injection, the mice were euthanized by cervical dislocation, and samples of the […] were collected for analysis.
The mouse liver tissues were fixed in 4% paraformaldehyde, embedded in paraffin and cut into 5-μm-thick sections using an RM2235 microtome (Leica, Germany). The sections were stained with hematoxylin-eosin (H&E), and a DM3000 microscope was used to acquire images. LPS-induced liver injury was evaluated according to the following four categories: […]. The liver injury score was graded on a 0- to 4-point scale: 0, no injury; 1, up to 25% injury in the field; 2, up to 50% injury in the field; 3, up to 75% injury in the field; 4, diffuse injury ([43]).
For immunohistochemical analysis, the sections were blocked with PBS containing 1% w/v BSA for 1 h at room temperature. Afterwards, the sections were incubated with anti-CD177^+ antibody (1:100; Santa, USA). Samples were washed with PBS followed by incubation with horse-radish peroxidase (HRP)-conjugated rabbit anti-goat IgG (1:100; JIR, USA) at 4°C for 1 h. Subsequently, slides were stained with 3,3’-diaminobenzidine (DAB; DAKO, USA) and then counterstained with Harris hematoxylin. Finally, the samples were dehydrated in an alcohol gradient (70-100%) and cleared in xylene. All slides were mounted in neutral balsam.
The levels of tumor necrosis factor (TNF)-α, interleukin (IL)-6, and IL-1β in cell culture supernatants and the levels of TNF-α, IL-6, and IL-1β in the serum of mice were detected using commercial ELISA kits (eBioscience, San Diego, USA) according to the manufacturer’s instructions. The levels of serum alanine amino transferase (ALT) and aspartate amino transferase (AST) were detected using commercial reagent kits (Nanjing Jiancheng Bioengineering Institute, Nanjing, China). The activity of myeloperoxidase (MPO) in the liver of mice was detected using an ELISA kit (Boster, Wuhan, China) according to the manufacturer’s instructions.

RWGRFLRKIRRFRRKDVT-NH2 [CTP-NH2, C-terminal amidated derivative peptide of CTP]
cytotoxicity (comparison in words) [1]: less cytotoxicity than CTP
phosphorylation of IKK-β, IκB-α and NF-κB [2]: dampened levels of IKK-β
liver MPO activity ([3]; ELISA, 10 mg/kg i.p. pretreatment, LPS 10 mg/kg i.p., vs LPS-treated mice): significantly reduced this effect
infiltration of CD177+ neutrophils into the liver ([3]; immunohistochemistry, 10 mg/kg i.p. pretreatment, LPS 10 mg/kg i.p., vs LPS-treated group): significantly lower
serum TNF-α, IL-6 and IL-1β levels ([3]; male C57/BL6 mice, 10 mg/kg i.p. once daily 7 days (Figure 8 legend: 6 days), then LPS 10 mg/kg i.p., 16 h, ELISA, vs LPS-treated group): significantly decreased levels of TNF-α
severity of liver injury (H&E, liver injury score) ([3]; male C57/BL6 mice, 10 mg/kg i.p. once daily pretreatment, LPS 10 mg/kg i.p., score 0 to 4): attenuated
serum ALT and AST ([3]; male C57/BL6 mice, 10 mg/kg i.p. once daily pretreatment, LPS 10 mg/kg i.p., vs LPS-treated group): significantly attenuated these effects
